US9861680B2, “Immunomodulators” (BRISTOL-MYERS SQUIBB COMPANY, priority 2014, dated 2018)
Numbered stars: 1 amine (or outer) side, 2 acyl side, 3 side chain; on linkers, the order of the positions; unused ones are H or OH. Bridge positions count the residues as written; N and C are the ends. Square brackets hold non-standard residues; d marks the D form. Peptide text beside a SMILES is read from it. X1 = O=C(CN(CCC(F)(F)F)[*:1])[*:2]; Gly(N-2-aminoethyl) = NCCNCC(=O)O; Hyp = O=C(O)[C@@H]1C[C@@H](O)CN1; Gly(N-CH2CH2OH) = O=C(O)CNCCO; NMeNle = CCCC[C@H](NC)C(=O)O; NMeA = CN[C@@H](C)C(=O)O; Nphe = O=C(O)CNCc1ccccc1; Dab = NCC[C@H](N)C(=O)O; Nme = COCCNCC(=O)O; NEtG = CCNCC(=O)O

Biological target: T1, PD-1-Ig binding to PD-L1-TVMV-His (PD-L1-His) (Homo sapiens, UniProt Q9NZQ7)
T1 construct: hPDL1(19-239)-TVMV-His; made in house; host or cells: HEK293T
T1 sequence (Q9NZQ7 with tags, fused parts or gaps): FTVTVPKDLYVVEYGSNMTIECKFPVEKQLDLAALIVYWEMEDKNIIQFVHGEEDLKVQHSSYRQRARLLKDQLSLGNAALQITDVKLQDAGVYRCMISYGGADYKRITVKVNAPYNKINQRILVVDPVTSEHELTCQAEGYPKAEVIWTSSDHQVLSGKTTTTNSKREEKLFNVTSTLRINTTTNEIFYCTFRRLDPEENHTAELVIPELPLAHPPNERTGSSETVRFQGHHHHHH
Assay: PD-1/PD-L1 Homogenous Time-Resolved Fluorescence (HTRF) binding assay
Details: PD-L1-His 10 nM, PD-1-Ig 20 nM
Source text: Methods for Testing the Ability of Macrocyclic Peptides to Compete for the Binding of Pd-1 to Pd-L1 Using Homogenous Time-Resolved Fluorescence (HTRF) Binding Assays
The ability of the macrocyclic peptides of the present disclosure to bind to PD-L1 was investigated using a PD-1/PD-L1 Homogenous Time-Resolved Fluorescence (HTRF) binding assay.
Homogenous Time-Resolved Fluorescence (HTRF) Assays of Binding of Soluble PD-1 to Soluble PD-L1. Soluble PD-1 and soluble PD-L1 refers to proteins with carboxyl-end truncations that remove the transmembrane-spanning regions and are fused to heterologous sequences, specifically the Fc portion of the human immunoglobuling G sequence (Ig) or the hexahistidine epitope tag (His). All binding studies were performed in an HTRF assay buffer consisting of dPBS supplemented with 0.1% (w/v) bovine serum albumin and 0.05% (v/v) Tween-20. For the PD-1-Ig/PD-L1-His binding assay, inhibitors were pre-incubated with PD-L1-His (10 nM final) for 15 m in 4 μl of assay buffer, followed by addition of PD-1-Ig (20 nM final) in 1 μl of assay buffer and further incubation for 15 m. PD-L1 fusion proteins from either human, cynomologous macaques, mouse, or other species were used. HTRF detection was achieved using europium crypate-labeled anti-Ig monoclonal antibody (1 nM final) and allophycocyanin (APC) labeled anti-His monoclonal antibody (20 nM final). Antibodies were diluted in HTRF detection buffer and 5 μl was dispensed on top of binding reaction. The reaction was allowed to equilibrate for 30 minutes and signal (665 nm/620 nm ratio) was obtained using an EnVision fluorometer. Additional binding assays were established between PD-1-Ig/PD-L2-His (20 and 5 nM, respectively), CD80-His/PD-L1-Ig (100 and 10 nM, respectively) and CD80-His/CTLA4-Ig (10 and 5 nM, respectively). Binding/competition studies between biotinylated Compound No. 71 and human PD-L1-His were performed as follows. Macrocyclic peptide inhibitors were pre-incubated with PD-L1-His (10 nM final) for 60 minutes in 4 μl of assay buffer followed by addition of biotinylated Compound No. 71 (0.5 nM final) in 1 μl of assay buffer. Binding was allowed to equilibrate for 30 minutes followed by addition of europium crypated labeled Streptavidin (2.5 pM final) and APC-labeled anti-His (20 nM final) in 5 μl of HTRF buffer. The reaction was allowed to equilibrate for 30 m and signal (665 nm/620 nm ratio) was obtained using an EnVision fluorometer.
Recombinant Proteins. Carboxyl-truncated human PD-1 (amino acids 25-167) with a C-terminal human Ig epitope tag [hPD-1 (25-167)-3S-IG] and human PD-L1 (amino acids 18-239) with a C-terminal His epitope tag [hPD-L1(19-239)-tobacco vein mottling virus protease cleavage site (TVMV)-His] were expressed in HEK293T cells and purified sequentially by recombinant Protein A affinity chromatography and size exclusion chromatography. Human PD-L2-His (Sino Biologicals), CD80-His (Sino Biologicals), CTLA4-Ig (RnD Systems) were all obtained through commercial sources.
Ranges are as follows: A=0.10-10 μM; B=0.01-0.099 μM; C=0.005-0.0099 μM.

IC50 (range class) [nM]	IC50 (numeric value) [nM]	SMILES
10 to 99	–	CCCC[C@H]1C(=O)N(C)[C@@H](CCCC)C(=O)N[C@@H](CC(C)C)C(=O)N[C@H](C(=O)NCC(N)=O)CSCC(=O)N[C@@H](Cc2ccc(O)cc2)C(=O)N(C)[C@@H](C)C(=O)N[C@@H](CC(N)=O)C(=O)N2CCC[C@H]2C(=O)N[C@@H](Cc2cnc[nH]2)C(=O)N[C@@H](CCC(=O)O)C(=O)N(CC)CC(=O)N[C@@H](Cc2c[nH]c3ccccc23)C(=O)N[C@@H](CCN)C(=O)N[C@@H](Cc2c[nH]c3ccccc23)C(=O)N1C [Example 3003] ({CH2CO}-Y[NMeA]NPHE[NEtG]W[Dab]W[NMeNle][NMeNle]LCG-NH2; thioether N-14)
10 to 99	–	CCCC[C@H]1C(=O)N(C)[C@@H](CCCC)C(=O)N[C@@H](CC(C)C)C(=O)N[C@H](C(=O)NCC(N)=O)CSCC(=O)N[C@@H](Cc2ccc(O)cc2)C(=O)N(C)[C@@H](C)C(=O)N[C@@H](CC(N)=O)C(=O)N2CCC[C@H]2C(=O)N[C@@H](Cc2cnc[nH]2)C(=O)N[C@@H](CCC(=O)O)C(=O)N(Cc2ccccc2)CC(=O)N[C@@H](Cc2c[nH]c3ccccc23)C(=O)N[C@@H](CCN)C(=O)N[C@@H](Cc2c[nH]c3ccccc23)C(=O)N1C [Example 3004] ({CH2CO}-Y[NMeA]NPHE[Nphe]W[Dab]W[NMeNle][NMeNle]LCG-NH2; thioether N-14)
–	30	CCCC[C@H]1C(=O)N(C)[C@@H](CCCC)C(=O)N[C@@H](CC(C)C)C(=O)N[C@H](C(=O)NCC(N)=O)CSCC(=O)N[C@@H](Cc2ccc(O)cc2)C(=O)N(C)[C@@H](C)C(=O)N[C@@H](CC(N)=O)C(=O)N2CCC[C@H]2C(=O)N[C@@H](Cc2cnc[nH]2)C(=O)N[C@@H](CCC(=O)O)C(=O)N(CC(=O)O)CC(=O)N[C@@H](Cc2c[nH]c3ccccc23)C(=O)N[C@@H](CCN)C(=O)N[C@@H](Cc2c[nH]c3ccccc23)C(=O)N1C [Example 3005]
10 to 99	–	CCCC[C@H]1C(=O)N(C)[C@@H](CCCC)C(=O)N[C@@H](CC(C)C)C(=O)N[C@H](C(=O)NCC(N)=O)CSCC(=O)N[C@@H](Cc2ccc(O)cc2)C(=O)N(C)[C@@H](C)C(=O)N[C@@H](CC(N)=O)C(=O)N2CCC[C@H]2C(=O)N[C@@H](Cc2cnc[nH]2)C(=O)N[C@@H](CCC(=O)O)C(=O)N(CCOC)CC(=O)N[C@@H](Cc2c[nH]c3ccccc23)C(=O)N[C@@H](CCN)C(=O)N[C@@H](Cc2c[nH]c3ccccc23)C(=O)N1C [Example 3006] ({CH2CO}-Y[NMeA]NPHE[Nme]W[Dab]W[NMeNle][NMeNle]LCG-NH2; thioether N-14)
10 to 99	–	CCCC[C@H]1C(=O)N(C)[C@@H](CCCC)C(=O)N[C@@H](CC(C)C)C(=O)N[C@H](C(=O)NCC(N)=O)CSCC(=O)N[C@@H](Cc2ccc(O)cc2)C(=O)N(C)[C@@H](C)C(=O)N[C@@H](CC(N)=O)C(=O)N2CCC[C@H]2C(=O)N[C@@H](Cc2cnc[nH]2)C(=O)N[C@@H](CCC(=O)O)C(=O)N(CCC(F)(F)F)CC(=O)N[C@@H](Cc2c[nH]c3ccccc23)C(=O)N[C@@H](CCN)C(=O)N[C@@H](Cc2c[nH]c3ccccc23)C(=O)N1C [Example 3007] ({CH2CO}-Y[NMeA]NPHE[X1]W[Dab]W[NMeNle][NMeNle]LCG-NH2; thioether N-14)
–	200	CCCC[C@H]1C(=O)N(C)[C@@H](CCCC)C(=O)N[C@@H](CC(C)C)C(=O)N[C@H](C(=O)NCC(N)=O)CSCC(=O)N[C@@H](Cc2ccc(O)cc2)C(=O)N(C)[C@@H](C)C(=O)N[C@@H](CC(N)=O)C(=O)N(Cc2ccccc2)CC(=O)N[C@@H](Cc2cnc[nH]2)C(=O)N[C@@H](CCC(=O)O)C(=O)N2C[C@H](O)C[C@H]2C(=O)N[C@@H](Cc2c[nH]c3ccccc23)C(=O)N[C@@H](CCN)C(=O)N[C@@H](Cc2c[nH]c3ccccc23)C(=O)N1C [Example 3008] ({CH2CO}-Y[NMeA]N[Nphe]HE[Hyp]W[Dab]W[NMeNle][NMeNle]LCG-NH2; thioether N-14)
10 to 99	–	CCCC[C@H]1C(=O)N(C)[C@@H](CCCC)C(=O)N[C@@H](CC(C)C)C(=O)N[C@H](C(=O)NCC(N)=O)CSCC(=O)N[C@@H](Cc2ccc(O)cc2)C(=O)N(C)[C@@H](C)C(=O)N[C@@H](CC(N)=O)C(=O)N(CCOC)CC(=O)N[C@@H](Cc2cnc[nH]2)C(=O)N[C@@H](CCC(=O)O)C(=O)N2C[C@H](O)C[C@H]2C(=O)N[C@@H](Cc2c[nH]c3ccccc23)C(=O)N[C@@H](CCN)C(=O)N[C@@H](Cc2c[nH]c3ccccc23)C(=O)N1C [Example 3009] ({CH2CO}-Y[NMeA]N[Nme]HE[Hyp]W[Dab]W[NMeNle][NMeNle]LCG-NH2; thioether N-14)
10 to 99	–	CCCC[C@H]1C(=O)N(C)[C@@H](CCCC)C(=O)N[C@@H](CC(C)C)C(=O)N[C@H](C(=O)NCC(N)=O)CSCC(=O)N[C@@H](Cc2ccc(O)cc2)C(=O)N(C)[C@@H](C)C(=O)N[C@@H](CC(N)=O)C(=O)N(CCC(F)(F)F)CC(=O)N[C@@H](Cc2cnc[nH]2)C(=O)N[C@@H](CCC(=O)O)C(=O)N2C[C@H](O)C[C@H]2C(=O)N[C@@H](Cc2c[nH]c3ccccc23)C(=O)N[C@@H](CCN)C(=O)N[C@@H](Cc2c[nH]c3ccccc23)C(=O)N1C [Example 3010] ({CH2CO}-Y[NMeA]N[X1]HE[Hyp]W[Dab]W[NMeNle][NMeNle]LCG-NH2; thioether N-14)
–	6.12	CCCC[C@H]1C(=O)N(C)[C@@H](CCCC)C(=O)N[C@@H](CC(C)C)C(=O)N[C@H](C(=O)NCC(N)=O)CSCC(=O)N[C@@H](Cc2ccc(O)cc2)C(=O)N(C)[C@@H](C)C(=O)N[C@@H](CC(N)=O)C(=O)N2CCC[C@H]2C(=O)N[C@@H](Cc2cnc[nH]2)C(=O)N[C@@H](CCC(=O)O)C(=O)N(CCN)CC(=O)N[C@@H](Cc2c[nH]c3ccccc23)C(=O)N[C@@H](CCN)C(=O)N[C@@H](Cc2c[nH]c3ccccc23)C(=O)N1C [Example 3011] ({CH2CO}-Y[NMeA]NPHE[Gly(N-2-aminoethyl)]W[Dab]W[NMeNle][NMeNle]LCG-NH2; thioether N-14)
10 to 99	–	CCCC[C@H]1C(=O)N(C)[C@@H](CCCC)C(=O)N[C@@H](CC(C)C)C(=O)N[C@H](C(=O)NCC(N)=O)CSCC(=O)N[C@@H](Cc2ccc(O)cc2)C(=O)N(C)[C@@H](C)C(=O)N[C@@H](CC(N)=O)C(=O)N2CCC[C@H]2C(=O)N[C@@H](Cc2cnc[nH]2)C(=O)N[C@@H](CCC(=O)O)C(=O)N(CCO)CC(=O)N[C@@H](Cc2c[nH]c3ccccc23)C(=O)N[C@@H](CCN)C(=O)N[C@@H](Cc2c[nH]c3ccccc23)C(=O)N1C [Example 3012] ({CH2CO}-Y[NMeA]NPHE[Gly(N-CH2CH2OH)]W[Dab]W[NMeNle][NMeNle]LCG-NH2; thioether N-14)
10 to 99	–	CCCC[C@H]1C(=O)N(C)[C@@H](CCCC)C(=O)N[C@@H](CC(C)C)C(=O)N[C@H](C(=O)NCC(N)=O)CSCC(=O)N[C@@H](Cc2ccc(O)cc2)C(=O)N(C)[C@@H](C)C(=O)N[C@@H](CC(N)=O)C(=O)N(CC)CC(=O)N[C@@H](Cc2cnc[nH]2)C(=O)N[C@@H](CCC(=O)O)C(=O)N2C[C@H](O)C[C@H]2C(=O)N[C@@H](Cc2c[nH]c3ccccc23)C(=O)N[C@@H](CCN)C(=O)N[C@@H](Cc2c[nH]c3ccccc23)C(=O)N1C [Example 3013] ({CH2CO}-Y[NMeA]N[NEtG]HE[Hyp]W[Dab]W[NMeNle][NMeNle]LCG-NH2; thioether N-14)
10 to 99	–	CCCC[C@H]1C(=O)N(C)[C@@H](CCCC)C(=O)N[C@@H](CC(C)C)C(=O)N[C@H](C(=O)NCC(N)=O)CSCC(=O)N[C@@H](Cc2ccc(O)cc2)C(=O)N(C)[C@@H](C)C(=O)N[C@@H](CC(N)=O)C(=O)N(CCN)CC(=O)N[C@@H](Cc2cnc[nH]2)C(=O)N[C@@H](CCC(=O)O)C(=O)N2C[C@H](O)C[C@H]2C(=O)N[C@@H](Cc2c[nH]c3ccccc23)C(=O)N[C@@H](CCN)C(=O)N[C@@H](Cc2c[nH]c3ccccc23)C(=O)N1C [Example 3014] ({CH2CO}-Y[NMeA]N[Gly(N-2-aminoethyl)]HE[Hyp]W[Dab]W[NMeNle][NMeNle]LCG-NH2; thioether N-14)
